{"source": "paper PMC12561670", "about": "“Isolation of Dual-Active Drugs with Anticancer and Antibacterial Activities That Target Both Tubulin and FtsZ” (Antibiotics, 2025)", "key": {"[1]": {"target": "T1, S. aureus FtsZ (Staphylococcus aureus, UniProt P0A031)", "T1 construct": "His tag; made in house; host or cells: E. coli BL21(DE3)", "T1 sequence (P0A031 1-390)": "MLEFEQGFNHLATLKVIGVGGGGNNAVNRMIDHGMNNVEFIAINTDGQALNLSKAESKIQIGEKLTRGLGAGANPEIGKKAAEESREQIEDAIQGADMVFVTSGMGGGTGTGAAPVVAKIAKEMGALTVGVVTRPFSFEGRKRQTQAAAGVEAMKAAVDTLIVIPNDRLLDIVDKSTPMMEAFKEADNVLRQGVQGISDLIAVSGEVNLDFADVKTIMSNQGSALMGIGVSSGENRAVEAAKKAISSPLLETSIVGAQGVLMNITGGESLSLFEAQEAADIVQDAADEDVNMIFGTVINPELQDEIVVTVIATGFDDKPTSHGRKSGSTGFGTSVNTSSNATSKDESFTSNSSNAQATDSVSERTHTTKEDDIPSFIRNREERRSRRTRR", "test": "FtsZ polymerization assay (A340)", "format": "biochemical", "procedure": "The effect of compounds on S. aureus FtsZ polymerization was monitored by employing a microtiter plate-based spectrophotometric assay method, and the reactions were conducted in flat-bottomed 96-well microtiter plates. The degree of FtsZ polymerization was reflected by the corresponding changes in absorbance at 340 nm (A340). […] The polymerization reaction began immediately once 4 mM GTP was added, and then the polymerization was continuously monitored at 25 °C for 60 min by measuring A340 in BioTek-Synergy4 multifunctional enzyme-linked immunosorbent assay (ELISA) reader."}, "[2]": {"test": "Cytotoxicity, CCK8", "format": "cell-based", "settings": "human, 12 h", "procedure": "The absorbance of 450 nm was measured in an ELISA reader (BioTek-Synergy 4, USA). Then, cell viability was calculated, and the corresponding images were drawn with GraphPad Prism 9."}, "[3]": {"tested_on": "Hela", "test": "Antiproliferative activity, CCK8", "format": "cell-based", "settings": "Homo sapiens", "procedure": "(§1) Antiproliferative activities of compounds were detected by employing the CCK8 method. HepG2, MCF-7, and Hela cells were cultured to log phase in DMEM medium supplemented with 10% fetal bovine serum. Cells were diluted to 2 × 10^4 cells/mL, and 100 µL of the obtained suspension was seeded in each well of the 96-well microplates, which were then cultured at 37 °C overnight. Subsequently, cells were treated with compounds at different concentrations. After co-culturing for 48 h, wells were washed with PBS three times and filled with 100 μL DMEM complete medium, which contained CCK8. After culturing for 2 h at 37 °C, the absorbance of measured and recorded on an ELISA reader (BioTek-Synergy 4, Winooski, VT, USA) at a test wavelength of 450 nm. Three replicate wells were employed for each drug concentration, and each assay was conducted at least three times."}, "[4]": {"tested_on": "HepG2", "test": "Antiproliferative activity, CCK8", "format": "cell-based", "settings": "Homo sapiens, HepG2, 48 h, read-out: cell viability HepG2", "procedure": "as §1"}, "[5]": {"tested_on": "MCF-7", "test": "Antiproliferative activity, CCK8", "format": "cell-based", "settings": "Homo sapiens", "procedure": "as §1"}, "[6]": {"target": "T2, FtsZ (Staphylococcus aureus, UniProt P0A031)", "T2 construct": "His tag; made in house; host or cells: E. coli BL21(DE3)", "T2 sequence (P0A031 1-390)": "T1 sequence (P0A031 1-390)", "test": "Sedimentation assay of FtsZ polymerization", "format": "biochemical", "settings": "50 μM compound, 5 μM FtsZ, 37 °C 30 min", "procedure": "Sedimentation assay was also conducted for the influence of compounds on FtsZ polymerization. FtsZ (5 μM) was polymerized in a buffer containing 25 mM Pipes buffer (pH 6.8) and 3 mM MgSO4 in the […] of DMSO or compounds (50 μM). After the addition of 4 mM GTP, the sample was instantly placed at 37 °C for 30 min. Then, the polymers were collected by centrifuging for 30 min at 25 °C. The protein concentration in the supernatant was determined using the Bradford quantification method, with bovine serum albumin (BSA) as the standard. The experiment was performed in triplicate, and the average absorbance is shown."}, "[7]": {"tested_on": "A549", "test": "Anticancer activity IC50", "format": "cell-based", "settings": "Homo sapiens, abstract only"}, "[8]": {"tested_on": "E. coli (ATCC 8739)", "test": "MIC, broth microdilution", "format": "cell-based", "settings": "Escherichia coli, ATCC8739; broth microdilution, 18 h, 37 °C; read-out: MIC E. coli (ATCC 8739)"}, "[9]": {"tested_on": "S. aureus (ATCC 6538)", "test": "MIC, broth microdilution", "format": "cell-based", "settings": "Staphylococcus aureus, ATCC6538; broth microdilution, 18 h, 37 °C; read-out: MIC S. aureus (ATCC 6538)"}, "[10]": {"settings": "48 h, read-out: cell viability Hela"}, "[11]": {"settings": "MCF7, 48 h, read-out: cell viability MCF-7"}}, "note": "Read-outs that look alike come from different tables or passages of the source.", "data": [{"compound": "CC(C)(C)c1[nH]cnc1/C=c1\\[nH]c(=O)/c(=C/c2ccccc2)[nH]c1=O", "note": "[Compound 23, Plinabulin]", "values": [{"measurement": "effect on FtsZ polymerization (A340)", "setting": "[1]; 50 μM compound, 5 µM FtsZ, 4 mM GTP, vs DMSO", "result": "remarkable promoting effect on FtsZ polymerization"}, {"measurement": "effect on FtsZ polymerization at different concentrations", "setting": "[1]; 5, 10, 20 and 50 μM, initial 10 min", "result": "markedly accelerated FtsZ polymerization"}, {"measurement": "viability at 100 µM", "setting": "[2]; read-out: cell viability HT293 (293T)", "result": 79, "unit": "%"}, {"measurement": "viability at 100 µM", "setting": "[2]; read-out: cell viability LO2", "result": 81, "unit": "%"}, {"measurement": "viability at 0.1 µM", "setting": "[3]; [10]", "result": 26, "unit": "%"}, {"measurement": "viability at 1 µM", "setting": "[3]; [10]", "result": 19, "unit": "%"}, {"measurement": "IC50", "setting": "[3]; abstract only", "result": 10, "unit": "nM"}, {"measurement": "viability at 0.1 µM", "setting": "[4]", "result": 30.5, "unit": "%"}, {"measurement": "viability at 1 µM", "setting": "[4]", "result": 11.5, "unit": "%"}, {"measurement": "viability at 0.1 µM", "setting": "[5]; [11]", "result": 27.5, "unit": "%"}, {"measurement": "viability at 1 µM", "setting": "[5]; [11]", "result": 10, "unit": "%"}, {"measurement": "IC50", "setting": "[5]; MCF7, abstract only", "result": 20, "unit": "nM"}, {"measurement": "effect on FtsZ sedimentation (polymerization amount)", "setting": "[6]", "result": "markedly enhanced protein sedimentation"}, {"measurement": "IC50", "setting": "[7]", "result": 12, "unit": "nM"}, {"measurement": "MIC", "setting": "[8]", "result": 64, "unit": "µM"}, {"measurement": "MIC", "setting": "[9]", "result": 8, "unit": "µM"}]}]}
